Test results published in paper PMC6332448, “SAR Studies Leading to the Identification of a Novel Series of Metallo-β-lactamase Inhibitors for the Treatment of Carbapenem-Resistant Enterobacteriaceae Infections That Display Efficacy in an Animal Infection Model” (ACS Infectious Diseases, 2018).
Values joined by “and” are separate entries in the source; they are usually repeats but may differ in a detail not shown here. Equal values may be shown once. Read-outs that look alike come from different tables or passages of the source.

What was measured:
Experiment in all cases: biochemical
[1] = target: NDM-1 (Klebsiella pneumoniae, UniProt C7C422); format: biochemical; details: for IC50: 10 mM HEPES pH 7.5, 25 °C, average of at least two independent assays; for inhibition of NDM-1, in words: tested up to 200 μM
[2] = target: IMP-1 (Serratia marcescens, UniProt P52699); format: biochemical; details: for inhibition of IMP-1, in words: tested up to 200 μM
[3] = target: VIM-1 (Pseudomonas aeruginosa, UniProt A0A0F7KYQ8); format: biochemical; details: for inhibition of VIM-1, in words: tested up to 200 μM
[4] = target: VIM-2 (Escherichia coli, UniProt Q5U7L7)
[5] = 300 μM imipenem, read-out: NDM-1 IC50
[6] = 300 μM imipenem, 10 mM HEPES pH 7.5, 25 °C, average of at least two independent assays, read-out: IMP-1 IC50
[7] = 300 μM imipenem, 10 mM HEPES pH 7.5, 25 °C, average of at least two independent assays, read-out: VIM-1 IC50

Chain of NDM-1 (C7C422 29-270, looked up, species assumed): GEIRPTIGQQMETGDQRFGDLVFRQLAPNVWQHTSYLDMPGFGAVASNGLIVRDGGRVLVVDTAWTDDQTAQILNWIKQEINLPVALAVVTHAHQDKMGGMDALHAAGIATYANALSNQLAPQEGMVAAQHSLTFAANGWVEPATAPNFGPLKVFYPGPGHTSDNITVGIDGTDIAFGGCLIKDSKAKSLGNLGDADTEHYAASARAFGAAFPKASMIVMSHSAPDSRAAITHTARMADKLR
Chain of IMP-1 (P52699 19-246, looked up, species assumed): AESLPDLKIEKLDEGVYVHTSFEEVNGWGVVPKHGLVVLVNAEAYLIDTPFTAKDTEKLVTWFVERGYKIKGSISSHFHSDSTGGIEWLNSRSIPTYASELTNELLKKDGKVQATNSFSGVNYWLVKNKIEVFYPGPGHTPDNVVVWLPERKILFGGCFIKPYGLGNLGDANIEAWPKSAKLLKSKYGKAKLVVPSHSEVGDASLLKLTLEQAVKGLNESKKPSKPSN

Compound | IC50 [1, 5] | IC50 [2, 6] | IC50 [3, 7] | further results
O=C(O)c1cc(NS(=O)(=O)c2ccccc2)ccn1 [Compound 55] | 145 µM | > 200 µM | > 200 µM | 
O=C(O)c1cccnn1 [Compound 10] |  |  |  | IC50 ([1]; NDM-1 IC50, 300 μM imipenem): > 200 µM; inhibition of NDM-1, in words [1]: no detectable inhibition; IC50 [4]: > 200 µM; IC50 [2]: > 200 µM; inhibition of IMP-1, in words [2]: no detectable inhibition; IC50 [3]: > 200 µM; inhibition of VIM-1, in words [3]: no detectable inhibition
O=C(O)c1ncccc1-c1ccoc1 [Compound 13] |  |  |  | IC50 ([1]; NDM-1 IC50, 300 μM imipenem): > 200 µM; IC50 [4]: > 200 µM; IC50 [2]: > 200 µM; IC50 [3]: > 200 µM
O=C(Cc1cccs1)Nc1ccnc(C(=O)O)c1 [Compound 53] | 43 µM | > 200 µM | > 200 µM | 
O=C(CCc1ccccc1)Nc1cccnc1C(=O)O [Compound 19] | 20.3 µM | 34.1 µM | > 200 µM | 
O=C(O)c1cccc(-c2ccc(F)c(F)c2)n1 [Compound 16] |  |  |  | IC50 ([1]; NDM-1 IC50, 300 μM imipenem): > 200 µM; IC50 [4]: > 200 µM; IC50 [2]: > 200 µM; IC50 [3]: > 200 µM
O=C(Cc1c(Cl)cccc1Cl)Nc1cccc(C(=O)O)n1 [Compound 27] | > 200 µM | 80 µM | > 200 µM | 
O=C(O)c1cnccn1 [Compound 9] |  |  |  | IC50 ([1]; NDM-1 IC50, 300 μM imipenem): > 200 µM; inhibition of NDM-1, in words [1]: no detectable inhibition; IC50 [4]: > 200 µM; IC50 [2]: > 200 µM; inhibition of IMP-1, in words [2]: no detectable inhibition; IC50 [3]: > 200 µM; inhibition of VIM-1, in words [3]: no detectable inhibition
O=C(Cc1cccs1)Nc1cccnc1C(=O)O [Compound 23] |  |  |  | IC50 ([1]; NDM-1 IC50, 300 μM imipenem): 6.56 µM and 6.6 µM; IC50 [4]: 91.3 µM; IC50 [2]: 146 µM; IC50 [3]: 133 µM
CS(=O)(=O)Nc1cccnc1C(=O)O [Compound 31] | 68.8 µM | > 200 µM | > 200 µM | 
O=C(O)c1ccc2ccccc2n1 [Compound 7] |  |  |  | IC50 ([1]; NDM-1 IC50, 300 μM imipenem): 40.9 µM; inhibition of NDM-1, in words [1]: modest inhibition; IC50 [4]: > 200 µM; IC50 [2]: > 200 µM; inhibition of IMP-1, in words [2]: no inhibition; IC50 [3]: > 200 µM; inhibition of VIM-1, in words [3]: no inhibition
O=C(Cc1ccccc1)Nc1ccnc(C(=O)O)c1 [Compound 52] | 11.6 µM | > 200 µM | > 200 µM | 
CCCCNC(=O)c1cccc(C(=O)O)n1 [Compound 49] | > 200 µM | > 200 µM | > 200 µM | 
COc1cccc(CC(=O)Nc2ccnc(C(=O)O)c2)c1 [Compound 50] | 35.3 µM | > 200 µM | > 200 µM | 
O=C(O)c1ncsc1NS(=O)(=O)c1ccncc1 [Compound 77] |  |  |  | IC50 ([1]; NDM-1 IC50, 300 μM imipenem): 3.4 µM; IC50 [4]: 1.8 µM; IC50 [2]: 23.4 µM; IC50 [3]: 180 µM
O=C(Cc1ccc(Cl)c(Cl)c1)Nc1cccc(C(=O)O)n1 [Compound 28] | 3.56 µM | 82.2 µM | > 200 µM | 
N#Cc1cccc(S(=O)(=O)Nc2cccnc2C(=O)O)c1 [Compound 33] | 148 µM | > 200 µM | > 200 µM | 
Cn1cnc(C(=O)O)c1 [Compound 8] |  |  |  | IC50 ([1]; NDM-1 IC50, 300 μM imipenem): > 200 µM; inhibition of NDM-1, in words [1]: no detectable inhibition; IC50 [4]: > 200 µM; IC50 [2]: > 200 µM; inhibition of IMP-1, in words [2]: no detectable inhibition; IC50 [3]: > 200 µM; inhibition of VIM-1, in words [3]: no detectable inhibition
CS(=O)(=O)Nc1cccc(C(=O)O)n1 [Compound 47] | 32.8 µM | > 200 µM | > 200 µM | 
O=C(Cc1ccc(F)cc1)Nc1ccc(C(=O)O)nc1 [Compound 57] | 27.9 µM | > 200 µM | > 200 µM | 
O=C(O)c1ncccc1-c1ccc(F)c(F)c1 [Compound 14] |  |  |  | IC50 ([1]; NDM-1 IC50, 300 μM imipenem): > 200 µM; IC50 [4]: > 200 µM; IC50 [2]: > 200 µM; IC50 [3]: > 200 µM
COc1cccc(S(=O)(=O)Nc2cccc(C(=O)O)n2)c1 [Compound 45] | 43.3 µM | > 200 µM | > 200 µM | 
N#Cc1cccc(S(=O)(=O)Nc2ccc(C(=O)O)nc2)c1 [Compound 60] | 7.2 µM | 162 µM | > 200 µM | 

Compound | IC50 [1, 5] | IC50 [2, 6] | IC50 [3, 7] | further results
O=C(O)c1ccc(NS(=O)(=O)Cc2ccccc2)cn1 [Compound 58] | 3.99 µM | > 200 µM | > 200 µM | 
O=C(O)c1ncccc1NS(=O)(=O)Cc1ccc([N+](=O)[O-])cc1 [Compound 44] | 120 µM | > 200 µM | > 200 µM | 
O=C(O)c1cc2ccccc2cn1 [Compound 11] |  |  |  | inhibition of NDM-1, in words [1]: modest inhibition; inhibition of IMP-1, in words [2]: no inhibition; inhibition of VIM-1, in words [3]: no inhibition
O=C(Cc1c(Cl)cccc1Cl)Nc1cccnc1C(=O)O [Compound 21] | 8.99 µM | > 200 µM | > 200 µM | 
CS(=O)(=O)c1ccc(S(=O)(=O)Nc2cccnc2C(=O)O)cc1 [Compound 30] | 69.9 µM | > 200 µM | > 200 µM | 
O=C(O)c1cc(NS(=O)(=O)Cc2ccccc2)ccn1 [Compound 54] | 65 µM | > 200 µM | > 200 µM | 
O=C(O)c1ncccc1NS(=O)(=O)Cc1ccc(Cl)c(Cl)c1 [Compound 69] |  |  |  | IC50 ([1]; NDM-1 IC50, 300 μM imipenem): > 200 µM; IC50 [2]: > 200 µM; IC50 [3]: > 200 µM
CCCCC(=O)Nc1cccnc1C(=O)O [Compound 20] | 11.1 µM | 157 µM | > 200 µM | 
O=C(O)c1cccc(NC(=O)c2cocn2)n1 [Compound 25] | 55.9 µM | > 200 µM | > 200 µM | 
O=C(O)c1ccc(NS(=O)(=O)c2ccccc2)cn1 [Compound 59] | 2.17 µM | 114 µM | 109 µM | 
O=C(Cc1cccs1)Nc1cccc(C(=O)O)n1 [Compound 29] | > 200 µM | > 200 µM | > 200 µM | 
COc1ccc(C(=O)Nc2cccc(C(=O)O)n2)cc1 [Compound 24] | 20.3 µM | 156 µM | > 200 µM | 
O=C(O)c1ncccc1NS(=O)(=O)Cc1cccc(F)c1 [Compound 36] | > 200 µM | 152 µM | 108 µM | 
O=C(O)c1ncccc1NS(=O)(=O)Cc1ccccc1Cl [Compound 67] |  |  |  | IC50 ([1]; NDM-1 IC50, 300 μM imipenem): 32.6 µM; IC50 [3]: 10.9 µM
O=C(O)c1ncccc1NS(=O)(=O)Cc1ccc(Cl)cc1 [Compound 42] | 18.4 µM | 146 µM | 88.4 µM | 
CCCCC(=O)Nc1ccnc(C(=O)O)c1 [Compound 51] | 11.5 µM | > 200 µM | > 200 µM | 
O=C(O)c1cccc(C(=O)NCc2nccs2)n1 [Compound 48] | > 200 µM | > 200 µM | > 200 µM | 
O=C(O)c1ncccc1NS(=O)(=O)c1ccc(F)cc1 [Compound 35] | 52.1 µM | > 200 µM | > 200 µM | 
CCCCC(=O)Nc1cccc(C(=O)O)n1 [Compound 26] | 19.4 µM | > 200 µM | > 200 µM | 
O=C(O)c1ncccc1NS(=O)(=O)c1ccccc1Cl [Compound 34] | > 200 µM | > 200 µM | > 200 µM | 
O=C(Cc1ccccc1)Nc1ccc(C(=O)O)nc1 [Compound 56] | 21.4 µM | > 200 µM | > 200 µM | 
O=C(O)c1cccc(NS(=O)(=O)Cc2ccccc2)n1 [Compound 46] | 43.7 µM | > 200 µM | > 200 µM | 
O=C(O)c1ncccc1NS(=O)(=O)Cc1ccc(Cl)cc1Cl [Compound 71] |  |  |  | IC50 ([1]; NDM-1 IC50, 300 μM imipenem): 80.6 µM; IC50 [2]: 74.3 µM; IC50 [3]: 17.5 µM
